# According to US4260629A, “Treating pain with acetaminophen and 1,4-dimethyl-5-p-chlorobenzoyl-pyrrole-2-acetic acid” (E. I. Du Pont de Nemours and Company, priority 1979, dated 1981):
# Tests used:
# [1] = system: phenyl-p-benzoquinone induced writhing; assay: mouse antiphenylquinone writhing test (prevention of phenyl-p-benzoquinone induced writhing; oral analgesic activity); type: in vivo, mouse (male CF1)
# Procedure: Male CF1 mice obtained from Charles River Breeding Laboratories, fasted for 16-22 hours, and weighing 18-22 g at the time of testing are used throughout. All mice are dosed orally with acetaminophen and/or zomepirac (calculated as the sodium salt) dissolved completely in distilled water containing as vehicle 2% by volume of Tween 80®, a pharmacological dispersant manufactured by Fisher Scientific Company and containing 100% polysorbate 80. A dosing volume of 20 ml/kg is used. All doses are coded and the test is performed under a code not known to the observer.
# A standard procedure for detecting and comparing the analgesic activity of different classes of analgesia drugs for which there is a good correlation with human efficacy is the prevention of phenyl-p-benzoquinone induced writhing in mice (H. Blumberg et al.; Proc. Soc. Exp. Biol. Med. 118, 763-766, 1965).
# Mice, intubated with various doses of sodium zomepirac, acetaminophen, combined doses of sodium zomepirac and acetaminophen, or vehicle, are injected intraperitoneally with a challenge dose of phenyl-p-benzoquinone.The phenyl-p-benzoquinone is prepared as a 0.1 mg/ml solution in 5% by volume of ethanol in water; the writhing dose is 1.25 mg/kg injected at the rate of 0.25 ml/20 g. For scoring purposes a "writhe" is indicated by whole body stretching or contraction of the abdomen: mice are observed 10 minutes for the presence or absence of writhing beginning 5 minutes after receiving the phenyl-p-benzoquinone dose. Each mouse is used only once, then discarded.
# In order to study the interaction between zomepirac and acetaminophen, precise dosage ratios of sodium zomepirac and acetaminophen are selected. Four to five coded doses of each selected combination are studied for analgesic effectiveness at 10 minutes using an experimental design which permits complete randomization of the separate dosage forms tested. Altogether 25 separate dosage forms are used and each form is represented in each experimental session. The experiments are continued by running experimental sessions with an equal number of mice being tested for each dosage group until the total number, N, of mice tested per group is 20.
# In the drawing, the diagonal line joining the ED50 values of the two drugs given separately represents simple additivity of drug effects. The dashed lines on each side of the diagonal line give the 95% confidence limits for this line of additivity. […] The 3 diagonal lines radiating from the origin represent the dose ratios of sodium zomepirac to acetaminophen used in mice receiving the combined drug dosages.
# [2] = system: phenyl-p-benzoquinone induced writhing; assay: as above; type: in vivo, mouse (male CF1); conditions: 10 min, preliminary experiment, 95% confidence limits 0.80-1.69 (sodium zomepirac), 166-281 (acetaminophen)
Structure (SMILES),"ED50 at 10 Min. (95% Confidence limits), Acetaminophen (alone or as component of the combination) ([1]; 10 min, N = 20 mice/dose, 95% limits on following lines: alone 162-309, 1:62.1 22.6-40.6, 1:186 37.7-68.5, 1:559 62.6-111)",% MICE BLOCKED ([1]; sodium zomepirac 0 + acetaminophen 54 mg/kg),% MICE BLOCKED ([1]; sodium zomepirac 0 + acetaminophen 108 mg/kg),% MICE BLOCKED ([1]; sodium zomepirac 0 + acetaminophen 216 mg/kg),% MICE BLOCKED ([1]; sodium zomepirac 0 + acetaminophen 432 mg/kg),ED50 [2],"ED50 at 10 Min. (95% Confidence limits), Sodium Zomepirac (alone or as component of the combination) ([1]; 10 min, N = 20 mice/dose, 95% limits on following lines: alone 1.09-2.12, 1:62.1 0.367-0.649, 1:186 0.204-0.365, 1:559 0.114-0.195)",% MICE BLOCKED ([1]; sodium zomepirac 0.29 + acetaminophen 0 mg/kg),% MICE BLOCKED ([1]; sodium zomepirac 0.58 + acetaminophen 0 mg/kg),% MICE BLOCKED ([1]; sodium zomepirac 1.16 + acetaminophen 0 mg/kg),% MICE BLOCKED ([1]; sodium zomepirac 2.32 + acetaminophen 0 mg/kg),% MICE BLOCKED ([1]; sodium zomepirac 4.64 + acetaminophen 0 mg/kg)
"CC(=O)Nc1ccc(O)cc1 [Acetaminophen, N-(4-hydroxyphenyl)acetamide]",224 mg/kg,10%,30%,45%,75%,216 mg/kg,,,,,,
Cc1cc(CC(=O)O)n(C)c1C(=O)c1ccc(Cl)cc1 [Sodium Zomepirac],,,,,,1.16 mg/kg,1.52 mg/kg,5%,20%,35%,60%,95%
